Assay results from PMC8088467 (Cell Proliferation, 2021).

Tested on: Candida albicans SC5314
Assay: Morphology assay (light microscope and SEM)
Type: cell-based
Conditions: 1 x 10^6 CFU/mL, RP medium, 8 hours 37°C; 200 nM TDNs, 20 µM His‐5 or 200 nM TDN/His‐5 (1:100); bright field images
Description: Candida albicans SC5314 (wild type) obtained from our laboratory were commercially from the American Type Culture Collection. ^34 Candida albicans strains were propagated on liquid or solid YPD medium at 30°C. The yeast cells used in all experiments were in the exponential growth phase (OD600 = 0.6). For inducing hyphae, C. albicans cells were grown in RPMI 1640 medium containing 2.5% foetal calf serum, 2 mM L‐glutamine, 20 mM HEPES and 16 mM sodium hydrogen carbonate (pH 7.0) (RP medium) at 37°C.
After fixation, the samples were dehydrated with a gradient series of ethanol. Specimens were observed under a Leica DM1000 microscope (Leica Microsystems) and a scanning electron microscope (Inspect F, FEI, America). ^40 , ^44

Histatin 5
Morphology of C. albicans (hyphae formation): more yeast cells and fewer hyphae
